From patent US5972961A, “4-aryl-3-aminoquinoline-2-one derivatives as potassium channel modulators” (Bristol-Myers Squibb Company, priority 1998, dated 1999)

What follows are compounds tested on cortical infarct volume after middle cerebral artery occlusion (assay: Permanent focal ischemia, middle cerebral artery occlusion (MCAO model)). Settings: 0.001 mg/kg intravenous single bolus 30 minutes after MCAO; vs vehicle-treated control; infarct measured 24 hours after MCAO.
Assay type: in vivo, spontaneously hypertensive rat
Description: To determine the ability of these compounds to reduce cell loss resulting from neuronal ischemia, a standard rodent model of permanent focal ischemia, involving occlusion of the middle cerebral artery in the spontaneously hypertensive rat (MCAO model) was employed [Tamura, A., et al., Journal of Cerebral Blood Flow and Metabolism, Volume 1, 53-60, (1981)].
Selected compounds have been evaluated in the focal stroke model involving permanent middle cerebral artery occlusion (MCAO) in the spontaneously hypertensive rat. This procedure results in a reliably large neocortical infarct volume that is measured by means of vital dye exclusion in serial slices through the brain 24 hours after MCAO. In the present test, compounds were administered using an intravenous route of administration at 30 minutes after occlusion.

| Structure (SMILES) | reduction of cortical infarct volume |
| --- | --- |
| Nc1c(-c2cc(Cl)ccc2O)c2cc(C(F)(F)F)ccc2[nH]c1=O [Example 2, 3-Amino-4-(5-chloro-2-hydroxyphenyl)-6-(trifluoromethyl)quinolin-2(1H)-one] | about 14% |

What follows are compounds tested on cloned mammalian (mSlo or hSlo) BK channels (assay: BK-mediated outward current in Xenopus oocytes, two-electrode voltage clamp). Settings: at 20 μM; expressed as percent increase over BK current in controls; IBTX-sensitive current; at least 5 oocytes.
Assay type: cell-based
Protocol: The ability of compounds described in the present invention to open BK channels and increase whole-cell outward (K^+) BK-mediated currents was assessed under voltage-clamp conditions by determining their ability to increase cloned mammalian (mSlo or hSlo) BK-mediated outward current heterologously expressed in Xenopus oocytes [Butler, A., et al., Science, 261: 221-224 (1993); and Dworetzky, S. I., et al., Mol. Brain Res., 27: 189-193 (1994)]. The two BK constructs employed represent nearly structurally identical homologous proteins, and have proven to be pharmacologically identical in our tests. To isolate BK current from native (background, non-BK) current, the specific and potent BK channel-blocking toxin iberiotoxin (IBTX) [Galvez, A., et al., J. Biol. Chem., 265: 11083-11090 (1990)] was employed at a supramaximal concentration (50 nM). The relative contribution of BK channels current to total outward current was determined by subtraction of the current remaining in the presence of IBTX (non-BK current) from the current profiles obtained in all other experimental conditions (control, drug, and wash). […] All compounds were tested in at least 5 oocytes and are reported at the single concentration of 20 μM; the effect of the selected compounds of Formula I on BK current was expressed as the percent of control IBTX-sensitive current and is listed in Table I. Recordings were accomplished using standard two-electrode voltage clamp techniques [Stuhmer, W., et al., Methods in Enzymology, Vol. 207: 319-339 (1992)]; voltage-clamp protocols consisted of 500-750 ms duration step depolarizations from a holding potential of -60 mV to +140 mV in 20 mV steps. The experimental media (modified Barth's solution) consisted of (in mM): NaCl (88), NaHCO3 (2.4), KCl (1.0), HEPES (10), MgSO4 (0.82), Ca(NO3)2 (0.33), CaCl2 (0.41); pH 7.5.

| Structure (SMILES) | BK Current |
| --- | --- |
| O=c1[nH]c2ccc(C(F)(F)F)cc2c(-c2cc(Cl)ccc2O)c1NS(=O)(=O)c1ccc([N+](=O)[O-])cc1 [Example 64, N-[4-(5-Chloro-2-hydroxyphenyl)-2-oxo-6-(trifluoromethyl)-1H-quinolin-3-yl]-4-nitrobenzene-sulfonamide] | ++ (++ = > 150%) |
| O=c1[nH]c2ccc(C(F)(F)F)cc2c(-c2cc(Cl)ccc2O)c1NS(=O)(=O)c1ccc(F)cc1 [Example 66, N-[4-(5-Chloro-2-hydroxyphenyl)-2-oxo-6-(trifluoromethyl)-1 H-quinolin-3-yl]-(4-fluorobenzene)sulfonamide] | ++ (++ = > 150%) |
| Nc1c(-c2cc(Cl)ccc2O)c2cc([N+](=O)[O-])ccc2[nH]c1=O [Example 19, 3-Amino-4-(5-chloro-2-hydroxyphenyl)-6-nitroquinolin-2(1H)-one] | ++ (++ = > 150%) |
| O=C(Nc1c(-c2cc(Cl)ccc2O)c2cc(C(F)(F)F)ccc2[nH]c1=O)c1ccccc1 [Example 10, N-[4-(5-Chloro-2-hydroxyphenyl)-2-oxo-6-(trifluoromethyl)-1H-quinolin-3-yl]benzamide] | + (+ = 100-150%) |
| Nc1c(-c2cc(Cl)ccc2O)c2ccccc2[nH]c1=O [Example 14, 3-Amino-4-(5-chloro-2-hydroxyphenyl)quinolin-2(1H)-one] | + (+ = 100-150%) |
| COc1ccc(CC(=O)Nc2c(-c3cc(Cl)ccc3O)c3cc(C(F)(F)F)ccc3[nH]c2=O)cc1 [Example 32, N-[4-(5-Chloro-2-hydroxyphenyl)-2-oxo-6-(trifluoromethyl)-1H-quinolin-3-yl]-(4-methoxyphenyl)acetamide] | + (+ = 100-150%) |
| O=C(Nc1c(-c2cc(Cl)ccc2O)c2cc(C(F)(F)F)ccc2[nH]c1=O)c1ccc(O)cc1 [Example 29, N-[4-(5-Chloro-2-hydroxyphenyl)-2-oxo-6-(trifluoromethyl)-1H-quinolin-3-yl]-4-hydroxybenzamide] | + (+ = 100-150%) |
| Nc1c(-c2cc(Cl)ccc2O)c2c(C(F)(F)F)c(Cl)ccc2[nH]c1=O [Example 44, 3-Amino-4-(5-chloro-2-hydroxyphenyl)-6-chloro-5-(trifluoromethyl)quinolin-2(1H)-one] | + (+ = 100-150%) |
| Cn1c(=O)c(N)c(-c2cc(Cl)ccc2O)c2cc(C(F)(F)F)ccc21 [Example 68, 3-Amino-4-(5-chloro-2-hydroxy-phenyl)-1-methyl-6-(trifluoro-methyl)quinolin-2(1H)-one] | + (+ = 100-150%) |
| Nc1c(-c2cc(Cl)ccc2O)c2cc(C(F)(F)F)ccc2[nH]c1=O [Example 2, 3-Amino-4-(5-chloro-2-hydroxyphenyl)-6-(trifluoromethyl)quinolin-2(1H)-one] | ++ (++ = > 150%) |
| O=C(Nc1c(-c2cc(Cl)ccc2O)c2cc(C(F)(F)F)ccc2[nH]c1=O)OCc1ccccc1 [Example 17, N-[4-(5-Chloro-2-hydroxyphenyl)-2-oxo-6-(trifluoromethyl)-1H-quinolin-3-yl]aminocarboxylic acid, phenylmethyl ester] | ++ (++ = > 150%) |
| Nc1c(-c2cc(Cl)ccc2O)c2cc(Cl)c(C(F)(F)F)cc2[nH]c1=O [Example 43, 3-Amino-4-(5-chloro-2-hydroxyphenyl)-6-chloro-7-(trifluoromethyl)quinolin-2(1H)-one] | + (+ = 100-150%) |
| Nc1c(-c2ccc(O)c(Cl)c2)c2cc(C(F)(F)F)ccc2[nH]c1=O [Example 71, 3-Amino-4-(3-chloro-4-hydroxy-phenyl)-6-(trifluoromethyl)quinolin-2(1H)-one] | + (+ = 100-150%) |
| O=c1[nH]c2ccc(C(F)(F)F)cc2c(-c2cc(Cl)ccc2O)c1NS(=O)(=O)C(F)(F)F [Example 5, N-[4-(5-Chloro-2-hydroxyphenyl)-2-oxo-6-(trifluoromethyl)-1H-quinolin-3-yl]trifluoromethanesulfonamide] | ++ (++ = > 150%) |
